Experimental data: patent US10662193B2, “Carbazole and carboline compounds for use in the diagnosis, treatment, alleviation or prevention of disorders associated with amyloid or amyloid-like proteins” (AC IMMUNE SA, priority 2014, dated 2020)

Tested on: tau tangles/Aβ plaques on AD brain sections
Assay: Assay 1: direct staining of human Alzheimer's disease brain sections (fluorescence)
Type: binding
Parameters: key to Direct staining of tau tangles/Aβ plaques on AD brain sections at 100 μM / Direct staining of tau tangles on AD brain sections at 100 μM / Direct staining of Aβ plaques on AD brain sections at 100 μM / Direct staining of tau tangles on AD brain sections (footnote a: at 250 μM): − (No); +++ (strong); ++ (good); + (weak)
Experimental: Assay 1 (Fluorescence Based Assay):
Direct Binding of Compounds of this Invention to Human Alzheimer's Disease Brain Sections and/or Displacement of RefA and Compound B
Frozen sections with a thickness of […] from the amygdala of donors diagnosed with Braak stage V-VI Alzheimer's Disease (Braak, H.; Braak, E. Acta Neuropathol., 1991, 82, 239-259), were purchased from a commercial provider (Tissue Solutions) and kept at −80° C. until use.
Direct Staining of Human Alzheimer's Disease Brain Sections
Brain sections were encircled with pap pen liquid blocker to reduce the volume of solution for the different incubations. Sections were fixed for 15 min at 4° C. with 4% paraformaldehyde and washed three times 5 minutes with PBS at room temperature. […] To reduce the auto-fluorescence of the tissue, the sections were incubated in a solution of 0.1% Sudan Black (Sigma 199664) in 70% ethanol for 15 min at room temperature in the dark, washed four times for 5 minutes with PBS, and mounted using ProLong Gold Antifade reagent (Invitrogen P36930). Sections were then analyzed on the Nikon Eclipse Ti microscope to detect staining and imaged using Nikon DS-Fi2 camera and NIS-Element AR4.13.1 software.

[1] = 100 μM compound, human AD brain sections, fluorescence, cell does not say tangles or plaques

SMILES | Direct staining of tau tangles/Aβ plaques on AD brain sections at 100 μM [1] | Direct staining of tau tangles on AD brain sections at 100 μM (100 μM compound) | Direct staining of Aβ plaques on AD brain sections at 100 μM (100 μM compound) | further results
Cn1c2ccncc2c2ccc(Nc3ccc(F)c([N+](=O)[O-])c3)nc21 [Example 98] | − |  |  | 
Cc1ccc(Nc2ccc3c4cnccc4n(C)c3n2)cc1OCCF [Example 34] |  | +++ (tangles) |  | 
COc1ccc(/C=C/c2ccc3nc(N4CCOCC4)sc3c2)cc1 [Compound B, reference compound] |  |  |  | Direct staining of Aβ plaques on AD brain section (100 μM, FIG. 2): Direct staining of Aβ plaques
Cn1c2ccncc2c2ccc(Nc3cccc(OCCOCCOCCF)n3)nc21 [Example 60] |  | ++ (tangles) ++ (plaques) | ++ (tangles) ++ (plaques) | 
Cn1c2ccncc2c2ccc(Nc3ccc(F)cc3)nc21 [Example 18] | − |  |  | 
CN1CCc2c(c3ccc(Nc4ccnc(OCCF)c4)nc3n2C)C1=O [Example 204] | − |  |  | 
Cn1c2ccncc2c2ccc(Nc3ccc(F)c(F)c3)cc21 [Example 39] |  | ++ (tangles) |  | 
CN1CCc2c(c3ccc(Nc4ccc(F)nc4)nc3n2C)C1=O [Example 182] | − |  |  | 
CNc1cc(Nc2ccc3c4cnccc4n(C)c3n2)ccc1F [Example 42] |  |  | +++ (plaques) | 
CN1CCc2c(c3ccc(Nc4ccn(CCF)n4)nc3n2C)C1=O [Example 190] | − |  |  | 
Cn1c2c(c3ccc(Nc4cccc(OCCF)n4)nc31)C(=O)NCC2 [Example 210] | − |  |  | 
Cn1c2c(c3ccc(Nc4cc(OCCF)ccn4)nc31)C(=O)NCC2 [Example 208] | − |  |  | 
Cn1c2c(c3ccc(Nc4ccnc(OCCF)c4)nc31)C(=O)NCC2 [Example 205] | − |  |  | 
Cn1c2ccncc2c2ccc(Nc3ncc(C#N)s3)nc21 [Example 61] | − |  |  | 
Cn1c2c(c3ccc(Nc4cccc(OCCF)c4)nc31)C(=O)NCC2 [Example 178] | − |  |  | 
Cn1c2ccncc2c2ccc(N3CCN(c4ccc(F)cc4)CC3)nc21 [Example 25] |  | + (tangles) + (plaques) | + (tangles) + (plaques) | 
Cn1c2cccnc2c2ccc(Nc3cccc(OCCF)c3)nc21 [Example 163] |  | ++ (tangles) |  | 
Cn1c2ccncc2c2ccc(Nc3ccc(F)nc3)nc21 [Example 22] |  | + (tangles) + (plaques | + (tangles) + (plaques | 
CN1CCc2c(c3ccc(Nc4ccc(F)c([N+](=O)[O-])c4)nc3n2C)C1=O [Example 211] | − |  |  | 
COc1cc(Nc2ccc3c4cnccc4n(C)c3n2)ccn1 [Example 24] |  |  | + (plaques) | 
CN1CCc2c(c3ccc(Nc4ccc(O)c(F)c4)nc3n2C)C1=O [Example 202] | − |  |  | 
Cn1c2ccncc2c2ccc(Nc3cccc(NCCF)c3)nc21 [Example 71] |  | + (tangles) + (plaques) | + (tangles) + (plaques) | 
Cn1c2ccncc2c2ccc(Nc3ccc([N+](=O)[O-])c(F)c3)nc21 [Example 99] | − |  |  | 
Cn1c2ccncc2c2ccc(Nc3cccc(N4CC(F)C4)c3)nc21 [Example 32] |  | + (tangles) + (plaques) | + (tangles) + (plaques) | 
Cn1c2ccncc2c2ccc(Nc3ccc(OCCF)cc3)nc21 [Example 20] |  |  | + (plaques) | 
Cn1c2c(c3ccc(Nc4cnn(CCF)c4)nc31)C(=O)NCC2 [Example 186] |  |  | + (plaques) | 
Cn1c2cc[nH]c(=O)c2c2ccc(Nc3cccc(OC(F)F)c3)nc21 [Example 193] | − |  |  | 

SMILES | Direct staining of tau tangles/Aβ plaques on AD brain sections at 100 μM [1] | Direct staining of tau tangles on AD brain sections at 100 μM (100 μM compound) | Direct staining of Aβ plaques on AD brain sections at 100 μM (100 μM compound) | further results
FCCN(c1ccc(F)c(F)c1)c1ccc2c3cnccc3n(CCF)c2n1 [Example 164] |  |  | + (plaques) | 
Cn1c2c(c3ccc(Nc4ccc(C#N)c(F)c4)nc31)C(=O)N(CCF)CC2 [Example 187] |  | + (tangles) |  | 
CN1CCc2c(c3ccc(Nc4ccc(OCCF)c(F)c4)nc3n2C)C1=O [Example 198] | − |  |  | 
CN1CCc2c(c3ccc(Nc4ccc(F)c(OCCF)c4)nc3n2C)C1=O [Example 200] |  | + (tangles) + (plaques) | + (tangles) + (plaques) | 
OCCn1c2ccncc2c2ccc(Nc3cccc(OCCF)c3)nc21 [Example 165] | − |  |  | 
Cc1nn(CCF)c(C)c1Nc1ccc2c3cnccc3n(C)c2n1 [Example 49] |  | + (tangles) |  | 
Cn1c2c(c3ccc(Nc4ccc(NCCF)cn4)nc31)C(=O)NCC2 [Example 82] |  | + (tangles) |  | 
Cn1c2ccncc2c2ccc(N3CCC[C@H](F)C3)nc21 [Example 158] |  | ++ (tangles) |  | 
Cn1c2ccncc2c2ccc(Nc3cccc(CCF)n3)nc21 [Example 149] |  | ++ (tangles) |  | 
CN(CCF)c1cccc(Nc2ccc3c4cnccc4n(C)c3n2)c1 [Example 26] |  |  | +++ (plaques) | 
COc1cc(Nc2ccc3c4c(n(C)c3n2)CCNC4=O)ccc1F [Example 180] | − |  |  | 
Cc1ccc(Nc2ccc3c4cnccc4n(C)c3n2)cc1OC(F)F [Example 36] |  |  | + (plaques) | 
CN1CCc2c(c3ccc(Nc4cccc(F)n4)nc3n2C)C1=O [Example 185] |  |  | + (plaques) | 
Cn1c2ccncc2c2ccc(Nc3ccc(OCCF)nc3)nc21 [Example 50] |  | + (tangles) + (plaques) | + (tangles) + (plaques) | 
Cn1c2ccncc2c2ccc(Nc3cccc(N4CCC(F)CC4)c3)nc21 [Example 33] |  | + (tangles) + (plaques) | + (tangles) + (plaques) | 
Cn1c2c(c3ccc(Nc4ccc(OCCF)cc4)nc31)C(=O)NCC2 [Example 177] | − |  |  | 
Cn1c2c(c3ccc(Nc4ccc(F)c(F)c4)nc31)C(=O)N(CCF)CC2 [Example 183] |  |  | + (plaques) | 
CN1CCc2c(c3ccc(N4CCC[C@@H](F)C4)nc3n2C)C1=O [Example 196] | − |  |  | 
CN1CCc2c(c3ccc(Nc4ccc(NCCF)cn4)nc3n2C)C1=O [Example 83] |  | + (tangles) |  | 
CN1CCc2c(c3ccc(Nc4cnn(CCCF)c4)nc3n2C)C1=O [Example 191] | − |  |  | 
CN(C)C(=O)CCc1ccc(/C=C2/C=CC(c3cccs3)N2)n1B(F)F (stereo not drawn) [Prep. Example 17, reference compound] |  |  |  | Direct staining of tau tangles/Aβ plaques on AD brain sections at 100 μM (100 μM in 50% ethanol, 20 min, "(tangles)" beside the symbol = tangles stained): −
Cn1c2c(c3ccc(Nc4ccc(OCCF)cn4)nc31)C(=O)NCC2 [Example 207] | − |  |  | 
Fc1ccc(Nc2ccc3c(n2)[nH]c2ccncc23)cc1F [Example 27] |  | + (tangles) + (plaques) | + (tangles) + (plaques) | 
COCCOCCn1c2ccncc2c2ccc(Nc3cccc(OCCF)c3)nc21 [Example 167] | − |  |  | 
CN1CCc2c(c3ccc(Nc4ccc(F)c([N+](C)(C)C)c4)nc3n2C)C1=O [Example 212] | − |  |  | 
Cn1c2ccncc2c2ccc(N3CC[C@H](F)C3)nc21 [Example 160] | − |  |  | 
Cn1c2ccncc2c2ccc(Nc3cncc(F)c3)nc21 [Example 29] |  | + (tangles) |  | 
